In brackets after ≈: the same amount, converted by molar mass.
Columns and labels:
E. coli strain AR13438 = experiment: MIC by agar dilution, clinical isolate AR13438; format: cell-based, Escherichia coli; conditions: for MIC: Escherichia coli, AR13438, clinical E. coli isolate (blaCMY-178, blaTEM-1, blaCTX-M-27), agar dilution
Experimental: (§1) Antimicrobial susceptibility testing was performed and interpreted according to the Clinical and Laboratory Standards Institute (CLSI) guidelines and breakpoints (M100, 31st edition) by the agar dilution method. E. coli ATCC 25922 and K. pneumoniae ATCC 700603 served as control strains.
(§2) The antibiotics we used included meropenem (Hanhui Pharmaceutical Co., Ltd., China), imipenem (Merck Sharp & Dohme Corp., USA), cefepime (Jiangsu Hengrui Pharmaceutical Co., Ltd., China), piperacillin (Suzhou Erye Pharmaceutical Co., Ltd., China), ceftazidime (Guangdong Jincheng Jinsu Pharmaceutical Co., Ltd., China), tazobactam (Meilunbio, China), avibactam (MedChemExpress, USA), aztreonam (Sigma-Aldrich, USA), amikacin (Meilunbio), cefuroxime (Esseti Farmaceutici S.r.l., Italy), fosfomycin (Harbin Pharmaceutical Group Co., Ltd. China), levofloxacin (Daiichi Sankyo Company Limited, Beijing, China), and cefotaxime (North China Pharmaceutical Hebei Huamin Pharmaceutical Co., Ltd., China).

[1] = tested on: K. pneumoniae isolate KPCZA02; experiment: microbe, parasite or virus in culture; format: cell-based; conditions: Klebsiella pneumoniae
Experimental: as §1

E. coli DH5α = experiment: MIC by agar dilution, E. coli DH5α; format: cell-based; conditions: Escherichia coli
Experimental: as §1, §2

E. coli DH5α-pCR2.1 = experiment: MIC by agar dilution, DH5α with blank vector pCR2.1; format: cell-based; conditions: Escherichia coli
Experimental: as §1, §2
(§3) The blaCMY cloning was performed using a TA cloning kit (Invitrogen, Shanghai, China). The blaCMY-178 gene combined with its predicted promoter was amplified from isolate AR13438. Then, the blaCMY-178 gene was cloned into the linearized vector pCR2.1 using T4 DNA ligase (Invitrogen). The blaCMY-172 gene was cloned from KPCZA02 with the same method. The resulting plasmids were chemically transformed into E. coli DH5α. The positive transformants were identified by blue-white screening in MH agar containing 50 μg/mL kanamycin and were further confirmed by Sanger sequencing. The pCR2.1 blank vector was also transformed into E. coli DH5α as a control. The primers used for cloning were CMY-F and CMY-R (see Table S2 in the supplemental material). Relative CMY expression was measured by reverse transcription-quantitative PCR as described previously ([34]). Specific quantitative PCR (qPCR) primers (q-recA-F/R and q-CMY-F/R) were designed (Table S2).

E. coli J53 = experiment: MIC by agar dilution, recipient E. coli J53; format: cell-based; conditions: Escherichia coli
Experimental: as §1, §2
(§4) Conjugation experiments were performed by filter mating using sodium-azide-resistant E. coli J53 as the recipient, as described previously. Transconjugants were selected with MH agar containing 100 μg/mL sodium azide and 4 μg/mL ceftazidime-avibactam; furthermore, transconjugants were named J53-AR13438 and J53-KPCZA02, respectively. We compared genomes of AR13438 and J53 to select a unique gene (gtrA) to J53. The blaCMY-178-postive transconjugants were confirmed by PCR and MALDI-TOF MS (see Fig. S9 in the supplemental material). The primers used for PCR were gtrA-F, gtrA-R, CMY-F, and CMY-R (Table S1). The transfer frequencies were calculated as the number of transconjugants (CFU/mL) divided by the number of recipients (CFU/mL). Donors and recipients were mixed at 1:1 for the transfer frequency experiment. S1-PFGE and Southern blotting were performed to define the location of blaCMY-178 and confirm the transmission of the plasmid as described previously ([35]). The MIC profiles of transconjugants were also determined by the agar dilution method.

E. coli J53-AR13438 = experiment: MIC by agar dilution, conjugant containing pAR13438_2; format: cell-based; conditions: Escherichia coli, J53AR13438, E. coli J53-AR13438 (blaCMY-178)
Experimental: as §1
as §4, with “The blaCMY-178-postive transconjugants were confirmed by PCR and MALDI-TOF MS (see Fig. S9 in the supplemental material).” left out

E. coli J53-KPCZA02 = experiment: MIC by agar dilution, conjugant containing pKPCZA02_4; format: cell-based; conditions: Escherichia coli, J53KPCZA02, E. coli J53-KPCZA02 (blaCMY-172)
Experimental: as §1
as §4, with “The blaCMY-178-postive transconjugants were confirmed by PCR and MALDI-TOF MS (see Fig. S9 in the supplemental material).” left out

[2] = tested on: E. coli DH5α-pCR2.1-CMY-2; experiment: MIC by agar dilution, transformant containing blaCMY-2; format: cell-based; conditions: Escherichia coli
[3] = tested on: E. coli DH5α-pCR2.1-CMY-178; experiment: MIC by agar dilution, transformant containing blaCMY-178; format: cell-based, Escherichia coli; conditions: Escherichia coli; E. coli DH5α-pCR2.1-CMY-178; agar dilution
Experimental: as §1, §2, §3

[4] = tested on: E. coli DH5α-pCR2.1-CMY-172; experiment: MIC by agar dilution, transformant containing blaCMY-172; format: cell-based; conditions: Escherichia coli
Experimental: as §1, §2, §3

CMY-172 = biological target: T1, CMY-172 (Klebsiella pneumoniae, UniProt Q48434, DEL310-312/N366I); experiment: Enzyme kinetics (substrate hydrolysis) of purified CMY-172; format: biochemical
T1 construct: were amplified without a signal peptide and cloned into the pET28a; His8 (N); made in house; host or cells: E. coli BL21(DE3)
Experimental: (§5) blaCMYs (including blaCMY-2, blaCMY-172, and blaCMY-178) were amplified without a signal peptide and cloned into the pET28a, which led to the introduction of an N-terminal His8-Tag.The recombinant plasmids were transformed into E. coli BL21(DE3) and selected using Sanger sequencing. Lysogenic broth containing 50 μg/mL kanamycin was inoculated with transformants and grown to reach an OD600 of 0.6. A final concentration of 1 mM isopropyl-β-D-thiogalactopyranoside (IPTG) was added into the resulting culture, which was shaken at 18°C overnight. The culture broth was centrifuged to harvest bacteria. The pellet was resuspended in lysis buffer (50 mM Tris-HCl and 300 mM NaCl (pH 7.5)) and disrupted using a JN-02C French press (JNBIO, Guangzhou, China) at 1,100 bar. Then, the cell debris was removed by centrifugation at 11,000 rpm for 40 min at 4°C. The supernatant was added to an Ni column, and the absorbed protein was eluted by the eluent buffer (lysis buffer with 300 mM imidazole). SDS-PAGE confirmed the protein purity of the eluent (>95%), and the sample was loaded onto a pre-equilibrated Superdex 200 column to eliminate imidazole.
(§6) Enzymatic activities were measured using a D8 UV-visible spectrophotometer (Rumqee, Shanghai, China) in phosphate-buffered saline (PBS; pH 7.2) at room temperature. Substrates tested included nitrocefin, ceftazidime, and avibactam. The extinction coefficient and wavelength of nitrocefin are 17,400 M^−1 · cm^−1 and 482 nm, respectively. […] The initial reaction velocities (v) were measured and Ki values were calculated by fitting data into equation 1 with GraphPad Prism v9.0.0 ([37]). (1) v=Vmax[S]/[S]+Km NCF (1+[I]/Ki)

CMY-178 = biological target: T2, CMY-178 (Klebsiella pneumoniae, UniProt Q48434, DEL310-312/N366I/N90T); experiment: Enzyme kinetics (substrate hydrolysis) of purified CMY-178; format: biochemical, Escherichia coli
T2 construct: were amplified without a signal peptide and cloned into the pET28a; His8 (N); made in house; host or cells: E. coli BL21(DE3)
Experimental: as §5, §6

[5] = tested on: O=C(Cc1cccs1)N[C@@H]1C(=O)N2C(C(=O)O)=C(/C=C/c3ccc([N+](=O)[O-])cc3[N+](=O)[O-])CS[C@H]12; experiment: Enzyme kinetics (substrate hydrolysis) of purified CMY-2; format: biochemical; conditions: other: CMY-2, PBS pH 7.2, room temperature, mean ± SD, three experiments
Experimental: as §5, §6

[6] = CMY-172, PBS pH 7.2, room temperature, mean ± SD, three experiments
[7] = CMY-178, PBS pH 7.2, room temperature, mean ± SD, three experiments

Row | Molecule | MIC (E. coli strain AR13438) | MIC [1] | MIC (E. coli DH5α) | MIC (E. coli DH5α-pCR2.1) | MIC (E. coli J53) | MIC (E. coli J53-AR13438) | MIC (E. coli J53-KPCZA02) | Antimicrobial susceptibility category (E. coli strain AR13438; AR13438, CLSI breakpoints (M100, 31st edition)) | MIC [2] | MIC [3] | MIC [4] | Kcat (CMY-172; [6]) | Km (CMY-172; [6]) | Decrease of kcat/Km compared with CMY-2 (CMY-172; CMY-172 vs CMY-2) | Kcat (CMY-178; [7]) | Km (CMY-178; [7]) | Decrease of kcat/Km compared with CMY-2 (CMY-178; CMY-178 vs CMY-2) | Km [5] | kcat [5] | kcat/Km [5]
1 | C[C@@H]1O[C@@H]1P(=O)(O)O [FOS, fosfomycin] | 1 µg/mL (≈ 7.24 µM) | > 1020 µg/mL | 0.25 µg/mL (≈ 1.81 µM) | 0.25 µg/mL (≈ 1.81 µM) | 0.5 µg/mL (≈ 3.62 µM) | 0.5 µg/mL (≈ 3.62 µM) | 0.5 µg/mL (≈ 3.62 µM) |  |  |  |  |  |  |  |  |  |  |  |  | 
2 | C[C@@H](O)[C@H]1C(=O)N2C(C(=O)O)=C(SCCN=CN)C[C@H]12 [IMP, imipenem] | 1 µg/mL (≈ 3.34 µM) | 64 µg/mL (≈ 214 µM) | 0.25 µg/mL (≈ 0.835 µM) |  | 0.5 µg/mL (≈ 1.67 µM) | 0.5 µg/mL (≈ 1.67 µM) | 0.5 µg/mL (≈ 1.67 µM) |  |  |  |  |  |  |  |  |  |  |  |  | 
3 | C[C@H]1COc2c(N3CCN(C)CC3)c(F)cc3c(=O)c(C(=O)O)cn1c23 [LEV, levofloxacin] | 32 µg/mL (≈ 88.6 µM) | 32 µg/mL (≈ 88.6 µM) | 0.03 µg/mL (≈ 0.083 µM) | 0.03 µg/mL (≈ 0.083 µM) | 0.03 µg/mL (≈ 0.083 µM) | 0.03 µg/mL (≈ 0.083 µM) | 0.03 µg/mL (≈ 0.083 µM) | resistant | 0.06 µg/mL (≈ 0.166 µM) | 0.06 µg/mL (≈ 0.166 µM) |  |  |  |  |  |  |  |  |  | 
4 | C[C@@H](O)[C@H]1C(=O)N2C(C(=O)O)=C(S[C@@H]3CN[C@H](C(=O)N(C)C)C3)[C@H](C)[C@H]12 [MEM, meropenem] | 0.125 µg/mL (≈ 0.326 µM) | 128 µg/mL (≈ 334 µM) | 0.03 µg/mL (≈ 0.0782 µM) | 0.03 µg/mL (≈ 0.0782 µM) | 0.03 µg/mL (≈ 0.0782 µM) | 0.06 µg/mL (≈ 0.156 µM) | 0.06 µg/mL (≈ 0.156 µM) |  |  | 0.06 µg/mL (≈ 0.156 µM) | 0.06 µg/mL (≈ 0.156 µM) |  |  |  |  |  |  |  |  | 
5 | O=C(Cc1cccs1)N[C@@H]1C(=O)N2C(C(=O)O)=C(/C=C/c3ccc([N+](=O)[O-])cc3[N+](=O)[O-])CS[C@H]12 [NCF, nitrocefin] |  |  |  |  |  |  |  |  |  |  |  | 52.41 ± 2.65 s⁻¹ | 12 ± 0.66 µM | approximately 3 fold | 55.81 ± 1.04 s⁻¹ | 12.5 ± 0.31 µM | approximately 3 fold |  |  | 
6 | CCN1CCN(C(=O)N[C@@H](C(=O)N[C@@H]2C(=O)N3[C@@H]2SC(C)(C)[C@@H]3C(=O)O)c2ccccc2)C(=O)C1=O [PIP, piperacillin] | > 256 µg/mL | > 256 µg/mL | 1 µg/mL (≈ 1.93 µM) | 1 µg/mL (≈ 1.93 µM) | 4 µg/mL (≈ 7.73 µM) | 64 µg/mL (≈ 124 µM) | 64 µg/mL (≈ 124 µM) |  | 256 µg/mL (≈ 495 µM) | 256 µg/mL (≈ 495 µM) | 256 µg/mL (≈ 495 µM) |  |  |  |  |  |  |  |  | 
7 | CMY-2 (Klebsiella pneumoniae) |  |  |  |  |  |  |  |  |  |  |  |  |  |  |  |  |  | 59.88 ± 2.59 µM | 732 ± 16.1 s⁻¹ | 1.22e+07 ± 600000 M⁻¹ s⁻¹
